Data reported in patent publication US20220305012A1, “L[…] TREATING SLEEP ISSUES” (EISAI R&D MANAGEMENT CO., LTD., priority 2019, published 2022).

Assays:
[1] = system: Subjects Having Insomnia Disorder; experiment: Example 2: Insomnia Severity Index Daytime Functioning (Items 4-7); assay type: in vivo, human; conditions: Day 31; Zolpidem ER 6.25 mg
Source text: (§1) As used herein, the term “Insomnia Severity Index”, abbreviated as “ISI”, is an index calculated using a 7-item, self-report questionnaire assessing the nature, severity, and impact of insomnia (see Bastien, C. H., et al. “Validation of the Insomnia Severity Index as an outcome measure for insomnia research.” Sleep Med. 2001; 2(4): 297-307). The questionnaire evaluates: (1) severity of sleep onset; (2) sleep maintenance; (3) early morning awakening problems; (4) sleep dissatisfaction; (5) interference caused by sleep difficulties with daytime functioning; (6) noticeability of sleep problems by others; and (7) distress caused by the sleep difficulties. A 5-point scale is used to rate each item (0=no problem to 4=very severe problem) yielding a total score from 0 to 28. Total ISI score (items (1)-(7)) and daytime functioning (items (4)-(7)) are analyzed separately.
(§2) On day 1 of the baseline period, subjects were admitted to the clinic and ISI, FSS, and EQ-5D-3L were administered. Blood and urine samples were collected for routine safety assessments, an ECG was performed, and vital signs and weight were assessed. The eC-SSRS was administered. Subjects who completed the baseline period and continued to meet the eligibility criteria were randomized and began the randomization phase.
(§3) On the evening of Day 30, subjects returned to the clinic. A pre-dose blood sample was collected and study drug was again administered within 5 minutes of the subject's mean habitual bedtime. A polysomnogram recording was initiated. The following morning (Day 31), postural stability and cognitive performance were assessed and a blood sample was obtained. The ISI, FSS, EQ-5D-3L and PGI-Insomnia were administered. Blood and urine samples were collected for routine safety assessment. An electrocardiogram was performed, and vital signs and weight were assessed. The eC-SSRS was then administered to the subject. At 1.5 hours after waketime, subjects rated their morning sleepiness level.

[2] = system: Subjects Having Insomnia Disorder; experiment: Example 2: postural stability, body sway upon awakening in morning; assay type: in vivo, human; conditions: Zolpidem ER 6.25 mg
Source text: Subjects were provided with a sleep diary and trained on how to record entries. After subjects completed the sleep diary on 7 consecutive mornings, and provided that the subject was still eligible to participate in the study, they attended a second clinical meeting between 10 and 17 days before the randomization phase. The subject was then fitted with a polysomnogram and trained in how to complete the postural stability assessment and cognitive performance assessment battery. Subjects then underwent an 8-hour polysomnogram recording. Within 5 minutes of waking, the postural stability assessment and cognitive assessment battery were conducted on the subject.
Within 5 minutes of the subject's mean habitual bedtime, study drug was administered and an overnight polysomnogram recording was initiated. At completion of the recording the following morning (Day 2), postural stability and cognitive performance were assessed. On the Day 2 evening, subjects returned to the clinic and a blood sample was collected before administering study drug, and then study drug was administered within 5 minutes of the subject's mean habitual bedtime. Again, a polysomnogram recording was initiated. The next morning (Day 3), postural stability and cognitive performance were assessed. A blood sample was also collected.
On Day 29, subjects returned to the clinic. Study drug was administered within 5 minutes of the subject's mean habitual bedtime and a polysomnogram recording was conducted. On the following morning (Day 30), postural stability and cognitive performance were assessed. After 1.5 hours of waketime, subjects rated their morning sleepiness level.
as §3
An exemplary additional secondary endpoint is the change from baseline on the postural stability test of mean units of body sway on Days 2 and 3 after administration of 5 mg or 10 mg of lemborexant compared to zolpidem.

[3] = system: Subjects Having Insomnia Disorder; experiment: Example 2: Insomnia Severity Index Total Score (Items 1-7); assay type: in vivo, human; conditions: Day 31; Zolpidem ER 6.25 mg
Source text: as §1, §2, §3

[4] = system: Subjects Having Insomnia Disorder; experiment: Example 2: Cognitive Performance Assessment Battery; assay type: in vivo, human; conditions: after the first 2 nights of treatment; 3 of the 4 domains vs placebo and 5 mg, 2 of the 4 domains vs 10 mg lemborexant (FIGS. 11A-11D)
Description: FIG. 11A-FIG. 11D show the change from baseline (least squares mean) in the four domains of the Cognitive Performance Assessment Battery at Days 2/3 and Days 30/31 in patients treated with placebo, 6.25 mg of zolpidem, 5 mg of lemborexant, or 10 mg of lemborexant.
Subjects were provided with a sleep diary and trained on how to record entries. After subjects completed the sleep diary on 7 consecutive mornings, and provided that the subject was still eligible to participate in the study, they attended a second clinical meeting between 10 and 17 days before the randomization phase. […]
Within 5 minutes of the subject's mean habitual bedtime, study drug was administered and an overnight polysomnogram recording was initiated. At completion of the recording the following morning (Day 2), postural stability and cognitive performance were assessed. […] The next morning (Day 3), postural stability and cognitive performance were assessed. […]
On Day 29, subjects returned to the clinic. […] On the following morning (Day 30), postural stability and cognitive performance were assessed. […]
On the evening of Day 30, subjects returned to the clinic. […] The following morning (Day 31), postural stability and cognitive performance were assessed and a blood sample was obtained. […] An electrocardiogram was performed, and vital signs and weight were assessed. […]

[5] = system: Subjects Having Insomnia Disorder; experiment: Example 2: auditory awakening threshold; conditions: Zolpidem 6.25 mg
[6] = system: Subjects Having Insomnia Disorder; experiment: Example 2: treatment-emergent adverse events; assay type: in vivo, human; conditions: Zolpidem ER 6.25 mg (N = 263)
Description: Between 14 and 18 days after completion of the treatment period, subjects returned to the clinic for the end of study visit. The T-BWSQ and eC-SSRS were administered and routine safety assessments were conducted.
A subject who prematurely discontinued taking study drug was to return to the clinic as soon as practicable after discontinuing study drug. If the subject discontinued due to an adverse event, the adverse event must have been followed to resolution or for 2 weeks, whichever came first. Additionally, subjects who discontinued early underwent a urine drug test.

Cc1ccc(-c2nc3ccc(C)cn3c2CC(=O)N(C)C)cc1 [Zolpidem ER, zolpidem, reference compound]
Insomnia Severity Daytime Functioning (Items 4-7), Change from Study Baseline, Mean (SD) [1]: −5.24 (3.764) | Insomnia Severity Daytime Functioning (Items 4-7), Change from Study Baseline, Median [1]: −5.00 | Insomnia Severity Daytime Functioning (Items 4-7), Mean (SD) [1]: 5.87 (3.417) | Insomnia Severity Daytime Functioning (Items 4-7), Median [1]: 6.00 | Body Sway Upon Awakening in Morning, Change from Study Baseline, Mean (SD) ([2]; Days 2/3): 4.07 ⅓ degree angle of arc | Body Sway Upon Awakening in Morning, Change from Study Baseline, Median ([2]; Days 2/3): 2.50 ⅓ degree angle of arc | Body Sway Upon Awakening in Morning, Mean (SD) ([2]; Days 2/3): 29.86 ⅓ degree angle of arc | Body Sway Upon Awakening in Morning, Median ([2]; Days 2/3): 25.00 ⅓ degree angle of arc | Body Sway Upon Awakening in Morning, Change from Baseline, Mean (SD) ([2]; Days 30/31): 2.12 ⅓ degree angle of arc | Body Sway Upon Awakening in Morning, Change from Baseline, Median ([2]; Days 30/31): 2.50 ⅓ degree angle of arc | Body Sway Upon Awakening in Morning, Mean (SD) ([2]; Days 30/31): 27.65 ⅓ degree angle of arc | Body Sway Upon Awakening in Morning, Median ([2]; Days 30/31): 22.50 ⅓ degree angle of arc | Insomnia Severity Total Score (Items 1-7), Change from Study Baseline, Mean (SD) [3]: −8.26 (6.013) | Insomnia Severity Total Score (Items 1-7), Change from Study Baseline, Median [3]: −8.00 | Insomnia Severity Total Score (Items 1-7), Mean (SD) [3]: 10.98 (5.452) | Insomnia Severity Total Score (Items 1-7), Median [3]: 11.00 | performance on Cognitive Performance Assessment Battery [4]: significantly worse performance than placebo | Auditory Awakening Threshold, LSM - Difference vs. Placebo [5]: 7.2 | Auditory Awakening Threshold, Mean (SD) [5]: 58.4 | Auditory Awakening Threshold, Median [5]: 55.0 | Congenital anomaly/birth defect [6]: 0 n (%) | Deaths [6]: 0 n (%) | Life threatening [6]: 0 n (%) | Other SAEs [6]: 4 (1.5) n (%) | Persistent or significant disability or incapacity [6]: 0 n (%) | Requires inpatient hospitalization or prolongation of existing hospitalization [6]: 4 (1.5) n (%) | Serious TEAEs [6]: 4 (1.5) n (%) | Severe TEAEs [6]: 8 (3.0) n (%) | TEAEs [6]: 93 (35.4) n (%) | TEAEs leading to study dose reduced [6]: 0 n (%) | TEAEs leading to study drug dose adjustment [6]: 8 (3.0) n (%) | TEAEs leading to study drug interrupted [6]: 2 (0.8) n (%) | TEAEs leading to study drug withdrawal [6]: 7 (2.7) n (%) | Treatment-related TEAEs [6]: 40 (15.2) n (%)
